Consider one substance from patent publication US8318697B2, “Prophylactic and therapeutic treatment of infectious and other diseases with mono- and disaccharide-based compounds” (Corixa Corporation, priority 2000, dated 2012).

For one assay, the system named is P. carinii. The assay is described as follows: Protection against P. carinii infection in anti-CD4 treated (immunocompromised) mice, lung impression smear score. The class given is in vivo. On the set-up: GIEMSA score for presence of P. carinii / SILVER score for presence of P. carinii: scale not given here. The method, then: Mice were pretreated with L3T4 anti-CD4 antibody for a minimum of 2 weeks (2 injections/week, 0.2 mg/injection) or until the peripheral CD4 count was reduced by at least about 50%.
An aqueous formulation was prepared containing 1 mg/ml 3-O-deacylated monophosphoryl lipid A and 108 μg/ml of the surfactant DPPC in water. The formulation was administered intratracheally via a small cannula at −24 hours and then twice a week for the remainder of the study. The concentrations administered are indicated below in Table 1. One million P. carinii were inoculated trans-tracheally at day 0. Twice-weekly treatments were continued for 7 weeks, lungs were removed and impression smears made. Slides were stained with Giemsa and silver and scored for the presence of P. carinni as follows.

A further assay has as its system C3H/HEJ splenocytes. The assay is described as follows: Cytokine induction in C3H/HEJ (toll-receptor 4 mutant) mouse splenic cultures. The class given is cell-based. On the procedure:
Lipid A compounds were tested by reconstitution in 0.2% triethanolamine in sterile water for irrigation, incubated at 56° C. and sonicated for 2×10 minutes at 37° C. LPS 055B5 (Sigma-Aldrich; St Louis, Mo.) was diluted into PBS.
BALB/c, DBA/2 and C3H/HEJ mice were purchased from The Jackson Laboratory (Bar Harbor, Me.). Spleens were taken from the mice between 2 PM and 3 PM, and separate single cell suspensions were obtained for each mouse strain. Red blood cells were lysed using Tris-ammonium chloride solution (Sigma-Aldrich), cells were washed and counted using Trypan Blue (Sigma-Aldrich) exclusion. One million splenocytes were cultured per well in 1.0 mL of culture medium. Splenic culture medium (SCM) was designed for 5 day or longer cultures of mouse splenocytes and consisted of RPMI 1640 (Sigma-Aldrich) supplemented to 5% with fetal bovine serum (HyClone; Logan, Utah), 100 ug/mL Gentamicin (Sigma-Aldrich), 250 ng/mL amphothericin (InVitrogen Life Technologies; Carlsbad, Calif.), 1×ITS (bovine insulin 500 ng/mL, human transferring 500 ng/mLg, sodium selenite 250 ng/mL, Sigma), beta-mercaptoethanol 43 nM (Sigma-Aldrich) purivic acid 1 mM (Sigma-Aldrich), HEPES 10 mM (Sigma-Aldrich). Data from these experiments is presented herein as FIG. 8.
BALB/c responses and C3H/HEJ responses were compared for MPL and RC552. […]

For the next assay, the system named is human macrophage. As to the kind of experiment: Microarray of RNA from stimulated human macrophage. Type of assay: cell-based.
The subject of another assay is human whole blood. Type of assay: cell-based.
[1] abbreviates: 25 MG/KG intratracheally at -24 hours then twice a week, 7 weeks, Table 1.
Where [2] appears, read: 100 MG/KG intratracheally, 7 weeks, Table 1.
Setting [3] is: 250 MG/KG intratracheally, 7 weeks, Table 1.

For “3-O-deacylated monophosphoryl lipid A [MPL]”, the “GIEMSA score for presence of P. carinii” value in the assay with P. carinii (setting [1]) is reported as 3.4 ± 0.5; in the assay with P. carinii (setting [2]), 2.7 ± 0.5; in the assay with P. carinii (100 MG/KG, repeated study, Table 2) it was 1.3 ± 0.3; with P. carinii (200 MG/KG, repeated study, Table 2), 1.0 ± 0.3; in the assay with P. carinii (setting [3]), 1.8 ± 0.8. Further, the “SILVER score for presence of P. carinii” value in the assay on P. carinii (setting [1]) is 3.3 ± 0.1; in the assay on P. carinii (setting [2]), 3.2 ± 0.1; in the assay with P. carinii (setting [3]), 1.6 ± 0.2. In addition, the “nonspecific resistance to infection by Pneumocystis carinii” value in the assay on P. carinii (pulmonary delivery, immunocompromised mice) was “promotes nonspecific resistance to infection by Pneumocystis carinii”. Besides, the cytokine response entry with C3H/HEJ splenocytes is “Neither MPL nor RC552 induced a cytokine response”. In addition, the “early TNF alpha RNA” value in the assay on human macrophage (1 hour) is “early (1 hour) TNF alpha RNA for both compounds”. The “6 hour TNF alpha RNA” value in the assay on human macrophage (6 hour) is given as “measurable 6 hour RNA”. Besides, the “IL-1β cba2” value in the assay on human whole blood (donor 1) was determined as 1213. Also, the IL10/TNFα cba in the assay on human whole blood (donor 2, ratio of IL-10 to TNF) turned out to be 1. The TNFα/IL10 cba in the assay with human whole blood (donor 2, ratio of TNF to IL-10) turned out to be 1.
